Legend:
[1] = tested on: MC38 tumor microenvironment; experiment: Fluorescence imaging of MC38 tumor sections after prophylactic vaccination; assay type: in vivo, HHD mice; conditions: day 14 tumors; p<0.05 vs. untreated or DC.IL12/no peptide
Excerpt: Day 14 MC38 tumors were harvested from HHD mice that had been vaccinated as outlined in FIG. 9B with the indicated peptides (or control PBS or DC.IL12 alone=No peptide). In FIG. 10A, six-micron tissue sections were co-stained with anti-CD8 (green) and anti-NG2 (red) antibodies and imaged by fluorescence microscopy. Blue signal=nuclear counterstain using 4′,6-diamidino-2-phenylindole (DAPI). FIG. 10B provides a summary of the mean+/−SD number of CD8^+ cells per high-power field (HPF) in MC38 tumors isolated from control or vaccinated mice as depicted in FIG. 10A. In FIG. 10C, tissue sections were co-stained with anti-CD31 (green) and anti-NG2 (red) antibodies and imaged by fluorescence microscopy. Blue signal=nuclear counterstain using DAPI. In FIG. 10D, the mean+/−SD number of CD31^+ vessels per HPF of MC38 tumors in control or vaccinated mice are summarized Representative data is depicted from 1 of 3 independent experiments performed. *p<0.05 versus DC only or untreated control mice.
Fluorescence Imaging of Tumor Sections. Tumor tissue samples were prepared and 6 micron sections prepared as previously reported (Komita et al., Cancer Res., 68:8076-8084, 2008). The following Abs were used: (for T cell analyses), rabbit anti-mouse NG2 (Millipore, Bedford, Mass.) and alexa488-conjugated anti-CD4 or -CD8β antibodies or matching isotype controls (all from BD-Biosciences); (for vascular analyses), rat anti-mouse CD31 (BD-Biosciences) and rabbit anti-mouse NG2 (Millipore) Abs; (for TBVA), rat anti-mouse CD31 (BD-Biosciences) and guinea pig anti-mouse NG2 Abs, along with anti-TBVA as described in Example 1. Imaging was performed using an Olympus Fluoview 500 Confocal microscope (Olympus America, Center Valley, Pa.).
Protective vaccines incorporating TBVA peptides promote enhanced infiltration of the TME by CD8^+ T cells in association with an inhibition of tumor vascularity. MC38 tumor lesions from all cohorts of animals with evidence of disease on day 14 (post-tumor inoculation) were isolated and immunofluorescence microscopy on tumor sections was performed. […] In marked contrast, CD4^+ T cell infiltration in the TME was sparse and the data were indistinguishable when comparing control vs. vaccinated mice (FIG. 17). […] Correlative analyses indicated an association between the anti-tumor efficacy of vaccines and their ability to promote CD8^+ T cell infiltration and reduced vascularity in the TME (FIG. 16).

B16 melanoma = experiment: Therapeutic vaccination of established B16 melanoma (tumor growth, survival); assay type: in vivo, HHD or C57BL/6 (B6) mice; conditions: for Survival of B16-bearing HHD mice: followed through 60 days post-tumor inoculation (FIG. 11C); for B16 tumor growth in HHD mice: therapeutic vaccines, HHD mice (FIG. 11B)
Description: FIGS. 11A-11C show a series of graphs illustrating that DC.IL12 vaccines containing TASA-derived peptides are therapeutic against MC38 colon carcinomas and B16 melanomas in HHD mice. In FIG. 11A, HHD mice bearing established day seven subcutaneous MC38 tumors (right flank) were left untreated, or they were vaccinated in the left flank with control DC.IL12 or DC.IL12 pulsed with an equimolar pool (10 μM each) of the following TASA-derived peptides: DLK1326-334, EPhA2883-891, HBB31-39, NRP1869-877, PDGFRβ890-898, RGS55-13 and TEM1691-700. Identical booster vaccines were provided on day 14 post-tumor inoculation. As indicated, two vaccine cohorts were treated with depleting anti-CD4 or anti-CD8 monoclonal antibodies to evaluate the impact of these T cell subsets on therapy outcome. Tumor growth was monitored every 3-4 days through d28. In FIG. 11B, Female HHD or C57BL/6 (B6) mice were inoculated subcutaneously in the right flank with 1×10^5B16 (HLA-A2^neg) tumor cells. […] The mice then received vaccines consisting of isologous control or peptide-pulsed DC.IL12 cells subcutaneously in the left flank on days 10 and 17 (post-tumor inoculation). In cases where more than one peptide was identified for a given target antigen, an equimolar pool of the indicated peptides (each 10 μM) was pulsed onto DC.IL12 and used for vaccination. Tumor size (mean+/−SD) was monitored every 3-4 days through day 34. In FIG. 11A and FIG. 11B, mean tumor area+/−SD is reported for 5 animals/cohort. Data are the representative of those obtained in two independent experiments in each case. *p<0.05 versus DC only on the indicated days. In FIG. 11C, HHD mice bearing subcutaneous B16 melanomas were treated as described in FIG. 11B and followed through day 60 post-tumor inoculation. Data are reported in a Kaplan-Meier plot depicting overall percentage of surviving animals over time. *p<0.02 versus DC only; **p<0.002 versus DC only (with refined p-values for differences between treatment cohorts reported in Table 6). Data are cumulative for three independent experiments performed.
Vaccine Experiments. For prophylactic experiments, HHD mice were immunized subcutaneously on the right flank with 100 μl PBS or PBS containing 10^6 syngenic DC.IL12 cells that had been untreated or pre-pulsed for 4 h at 37° C. with 10 μM synthetic peptide(s). […] For analysis of tumor cellular composition in repeat experiments, MC38 tumors were isolated by surgical resection 10 days after tumor inoculation and prepared for fluorescence imaging, as described below. […] In some assays, as indicated, in vivo antibody depletions (on days 6, 13 and 20 post-tumor inoculation to assess early involvement or on days 60 and 67 or 180 and 187 to assess late involvement) of protective CD4^+ T cells or CD8^+ T cells were performed and monitored as previously described (Zhao et al., Mol Ther., 19:805-814, 2011). In all cases, tumor size (area) was monitored every 3-4 days and is reported as mean+/−SD in mm^2.
To analyze the status and specificity of Tc1 cells, HHD mice rendered free of B16 melanoma after therapeutic vaccination with DLK or RGS5 peptide-based vaccines were sacrificed 60 days after tumor inoculation. Fresh MACS-isolated spleen CD8^+ T cells were then analyzed for reactivity against HLA-A2^+PDGFRβ^+CD31^neg pericytes, HLA-A2^+PDGFRβ^negCD31^+ VEC or HLA-A2^neg tumor cells flow-sorted from day 19 B16 tumors growing progressively in untreated HHD mice. […]

Substance: EphA2: EphA2-derived peptide 883-891 pulsed onto DC or DC.IL12 (TLADFDPRV; listed as Homo sapiens)
- Suppression in CD31+ vessel counts in the MC38 TME [1]: greatest degree of suppression in CD31^+ vessel counts
- Survival of B16-bearing HHD mice (B16 melanoma): significant survival benefits
- B16 tumor growth in HHD mice (B16 melanoma): effective in suppressing tumor growth

Substance: TEM1: TEM1-derived peptide 691-700 pulsed onto DC or DC.IL12 (LLVPTCVFLV; listed as Homo sapiens)
- Suppression in CD31+ vessel counts in the MC38 TME [1]: greatest degree of suppression in CD31^+ vessel counts
- Survival of B16-bearing HHD mice (B16 melanoma): significant survival benefits

Substance: RGS5: RGS5-derived peptide 5-13 pulsed onto DC or DC.IL12 (LAALPHSCL; listed as Homo sapiens)
- Suppression in CD31+ vessel counts in the MC38 TME [1]: greatest degree of suppression in CD31^+ vessel counts
- Survival of B16-bearing HHD mice (B16 melanoma): significant survival benefits
- B16 tumor growth in HHD mice (B16 melanoma): effective in suppressing tumor growth

From patent US9937250B2, “Immunogenic tumor associated stromal cell antigen peptides and methods of their use” (University of Pittsburgh—Of the Commonwealth System of …, priority 2011, dated 2018)
